Data as given in patent publication US8163909B2, “Substituted hydroxyethyl amine compounds as beta-secretase modulators and methods of use” (Amgen Inc., priority 2007, dated 2012).
Read-outs that look alike come from different tables or passages of the source.

Experiments:
[1] = system: Aβ40 in conditioned medium of cells stably expressing Amyloid Precursor Protein (APP); test: In vitro BACE cell-based assay (Aβ40 in conditioned medium, sandwich ELISA); details: Homo sapiens;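 also: compounds added as a dilution series, secreted peptide quantified by europium time-resolved fluorescence readout, potency fitted from percent of control versus compound concentration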
CYP3A4 (CYP3A) = CYP3A4 (CYP3A) (Homo sapiens, UniProt P08684); test: in vitro; details: microsomes, pH 7.4;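 also: inhibition of CYP3A-mediated 1-hydroxymidazolam formation after 10 min incubation with NADPH, quantified by HPLC MS relative to metabolite produced without test compound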
Sequence of CYP3A4 (CYP3A) (P08684 2-503): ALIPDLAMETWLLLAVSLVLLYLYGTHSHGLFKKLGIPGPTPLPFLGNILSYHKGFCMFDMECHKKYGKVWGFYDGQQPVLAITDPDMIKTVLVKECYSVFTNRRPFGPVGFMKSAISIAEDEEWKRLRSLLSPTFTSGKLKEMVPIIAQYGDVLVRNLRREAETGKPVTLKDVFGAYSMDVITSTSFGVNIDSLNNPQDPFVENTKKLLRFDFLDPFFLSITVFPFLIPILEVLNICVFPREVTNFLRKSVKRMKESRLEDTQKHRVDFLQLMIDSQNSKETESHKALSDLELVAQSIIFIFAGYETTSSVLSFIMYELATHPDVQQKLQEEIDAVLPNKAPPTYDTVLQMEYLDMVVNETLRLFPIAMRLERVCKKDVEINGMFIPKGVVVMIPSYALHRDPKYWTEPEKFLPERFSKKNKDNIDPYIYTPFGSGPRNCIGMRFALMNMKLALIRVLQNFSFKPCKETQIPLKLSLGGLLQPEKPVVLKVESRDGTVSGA

[2] = Microsomal stability assay, human liver microsomes;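 also: pooled human liver microsomes at 0.25 mg/mL with 1 µM compound and NADPH at 37 °C, pH 7.4, for 30 min, unchanged parent quantified by LC-MS/MS against the 0 min sample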
[3] = target: Beta Secretase enzyme (BACE) (Homo sapiens, UniProt P56817); test: In vitro enzymatic BACE FRET (fluorescence resonance energy transfer) assay; assay type: biochemical;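 also: fluorescence read after 1 h with 50 nM quenched peptide substrate spanning the BACE cleavage site, in pH 4.2 acetate buffer containing 10% DMSO and nonionic detergent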
Sequence of Beta Secretase enzyme (BACE) (P56817 46-501): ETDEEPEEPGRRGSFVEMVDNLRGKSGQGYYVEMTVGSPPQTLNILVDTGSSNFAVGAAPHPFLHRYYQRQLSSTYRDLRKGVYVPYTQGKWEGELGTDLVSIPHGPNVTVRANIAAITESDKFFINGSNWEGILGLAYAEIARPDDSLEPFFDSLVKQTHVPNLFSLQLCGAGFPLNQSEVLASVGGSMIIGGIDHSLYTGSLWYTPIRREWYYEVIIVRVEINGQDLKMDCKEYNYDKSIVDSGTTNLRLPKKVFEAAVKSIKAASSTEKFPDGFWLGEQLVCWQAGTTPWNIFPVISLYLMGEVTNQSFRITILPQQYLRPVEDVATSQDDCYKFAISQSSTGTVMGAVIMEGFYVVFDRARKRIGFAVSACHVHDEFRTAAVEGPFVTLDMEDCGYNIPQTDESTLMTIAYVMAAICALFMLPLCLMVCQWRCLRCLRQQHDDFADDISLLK

CYP2D6 = CYP2D6 (Homo sapiens, UniProt P10635); test: CYP2D6 inhibition assay (bufuralol, pooled human liver microsomes)
Sequence of CYP2D6 (P10635 whole entry): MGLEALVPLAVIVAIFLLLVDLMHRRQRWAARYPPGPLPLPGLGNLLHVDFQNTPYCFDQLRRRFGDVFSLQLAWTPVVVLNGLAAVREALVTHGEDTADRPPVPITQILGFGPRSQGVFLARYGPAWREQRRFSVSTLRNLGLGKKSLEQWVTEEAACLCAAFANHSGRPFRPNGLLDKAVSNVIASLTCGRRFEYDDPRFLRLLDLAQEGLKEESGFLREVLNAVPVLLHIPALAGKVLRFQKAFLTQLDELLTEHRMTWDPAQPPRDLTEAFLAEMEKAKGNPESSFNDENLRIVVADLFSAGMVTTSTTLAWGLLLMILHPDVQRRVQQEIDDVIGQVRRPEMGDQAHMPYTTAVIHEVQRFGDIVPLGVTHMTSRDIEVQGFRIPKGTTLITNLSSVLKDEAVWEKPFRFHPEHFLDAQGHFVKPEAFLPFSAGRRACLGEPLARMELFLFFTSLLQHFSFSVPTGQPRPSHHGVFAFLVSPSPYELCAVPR

[4] = Microsomal stability assay, rat liver microsomes;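 also: rat liver microsomes (0.25 mg/mL) with about 1 µM compound plus 1 mM NADPH, pH 7.4, 37 °C for 30 min, parent left measured by LC-MS/MS against 0 min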
[5] = HEK293, HEK cell-based assay, IC50's in uM, read-out: HEK cell assay
[6] = BACE enzyme assay, IC50's in uM, read-out: BACE1 FRET assay
[7] = 2D6 IC50 (uM), CYP enzyme inhibition
[8] = HEK293, HEK cells, read-out: HEK cell assay (IC50)
[9] = read-out: BACE1 FRET assay (IC50)
[10] = HEK293, HEK cell-based assay IC50, read-out: HEK cell assay
[11] = BACE enzyme assay IC50, read-out: BACE1 FRET assay
[12] = 2D6 IC50 (uM), CYP2D6 inhibition
[13] = HEK293, cell-based assay, HEK cells, IC50's in uM, read-out: HEK cell assay
[14] = 2D6 IC50, CYP enzyme inhibition

| SMILES | IC50 [1, 5] | IC50 (CYP3A4 (CYP3A)) | HLM ([2]; human liver microsomal data) | IC50 [3, 6] | IC50 (CYP2D6; [7]) | RLM ([4]; rat liver microsomal data) | HLM ([2]; human liver microsomes) | RLM ([4]; rat liver microsomes) | IC50 [1, 10] | IC50 [3, 11] | IC50 (CYP2D6; [12]) | also measured |
| --- | --- | --- | --- | --- | --- | --- | --- | --- | --- | --- | --- | --- |
| COCCC(=O)N[C@@H](Cc1cccc(-c2nccs2)c1)[C@H](O)CN[C@H]1CC2(CCC2)Oc2ncc(CC(C)(C)C)cc21 [compound 791] | 0.012 µM | 100 nM | 43 µL/min/mg | 0.009 µM | 0.6 µM | 33 µL/min/mg | – | – | – | – | – | – |
| CC(=O)N[C@@H](Cc1ccc(F)c(-c2cccnc2)c1)[C@H](O)CN[C@H]1CC2(CCC2)Oc2ccc(CC(C)(C)C)cc21 [compound 648] | – | 100 nM | – | – | – | – | 551 µL/min/mg | 560 µL/min/mg | – | – | – | IC50 [1, 8]: 0.045 µM; IC50 [3, 9]: 0.008 µM; IC50 (CYP2D6; 2D6 IC50, CYP2D6 inhibition): 0.4 µM |
| CO[C@H](C)C(=O)N[C@@H](Cc1cncs1)[C@H](O)CN[C@H]1CC2(CCC2)Oc2c1cc(CC(C)(C)C)nc2-c1ccccn1 [compound 781] | 0.206 µM | 400 nM | 104 µL/min/mg | 0.071 µM | ≥ 27 µM | 82 µL/min/mg | – | – | – | – | – | – |
| CC(=O)N[C@@H](Cc1ccc(F)cc1)[C@H](O)CN[C@H]1CC2(CCNC2)Oc2cnc(CC(C)(C)C)cc21 (stereo partly drawn) [compound 702] | – | 1800 nM | – | – | – | – | 14 µL/min/mg | 26 µL/min/mg | 0.454 µM | 36.4 µM | 13.5 µM | – |
| CCOCC(=O)N[C@@H](Cc1cccc(-c2nccs2)c1)[C@H](O)CN[C@H]1CC2(CCC2)Oc2ncc([C@@H]3CC3(C)C)cc21 [compound 914, N-((1S,2R)-3-(((4′S)-6′-((1R)-2,2-dimethylcyclopropyl)-3′,4′-dihydrospiro[cyclobutane-1,2′-pyrano[2,3-b]pyridin]-4′-yl)amino)-2-hydroxy-1-(3-(1,3-thiazol-2-yl)benzyl)propyl)-2-ethoxyacetamide] | – | 200 nM | 57 µL/min/mg | 0.002 µM | – | 61 µL/min/mg | – | – | – | – | – | IC50 [1, 13]: 0.008 µM; IC50 (CYP2D6; [14]): 0.2 µM |
| CCCc1cnc2c(c1)[C@@H](NC[C@@H](O)[C@H](Cc1cc(F)cc(-c3nccs3)c1)NC(=O)COC)CC1(CCC1)O2 [compound 865] | – | 300 nM | 125 µL/min/mg | 0.086 µM | – | 74 µL/min/mg | – | – | – | – | – | IC50 [1, 13]: 0.879 µM; IC50 (CYP2D6; [14]): 0.7 µM |
| CC(C)(C)Cc1cnc2c(c1)[C@@H](NC[C@@H](O)[C@H](Cc1ccc3c(c1)OCO3)NC(=O)CC1CCS(=O)(=O)C1)CC1(CCC1)O2 (stereo partly drawn) [compound 778] | 0.05 µM | 100 nM | 62 µL/min/mg | 0.048 µM | 8.5 µM | 141 µL/min/mg | – | – | – | – | – | – |
| COCC(=O)N[C@@H](Cc1cc(F)cc(-c2nccs2)c1)[C@H](O)CN[C@@]1(C)CC2(CCC2)Oc2ncc(CC(C)(C)C)cc21 [compound 866] | – | 200 nM | 84 µL/min/mg | 0.177 µM | – | 90 µL/min/mg | – | – | – | – | – | IC50 [1, 13]: 0.88 µM; IC50 (CYP2D6; [14]): 0.9 µM |
| CNc1nc(CC(C)C)cc2c1OC1(CCC1)C[C@@H]2NC[C@@H](O)[C@H](Cc1ccc2c(c1)OCO2)NC(=O)[C@@H](C)OC [compound 680] | – | 500 nM | – | – | – | – | 220 µL/min/mg | 317 µL/min/mg | 0.025 µM | 0.14 µM | 14 µM | – |
| CO[C@H](C)C(=O)N[C@@H](Cc1cc(F)cc(-c2nccs2)c1)[C@H](O)CN[C@H]1CC2(CCC2)Oc2cnc(CC(C)(C)F)cc21 [compound 721, (2R)-N-((1S,2R)-3-(((4′S)-6′-(2-fluoro-2-methylpropyl)-3′,4′-dihydrospiro[cyclobutane-1,2′-pyrano[2,3-c]pyridin]-4′-yl)amino)-1-(3-fluoro-5-(1,3-thiazol-2-yl)benzyl)-2-hydroxypropyl)-2-methoxypropanamide] | – | 300 nM | – | – | – | – | 111 µL/min/mg | 152 µL/min/mg | 0.118 µM | 0.049 µM | 0.5 µM | – |
| COCC(=O)N[C@@H](Cc1ccc2c(c1)OCO2)[C@H](O)CN[C@H]1CC2(CCC2)Oc2c(-c3ccccn3)cc(CC(C)C)cc21 [compound 767] | 0.251 µM | 100 nM | 157 µL/min/mg | 0.198 µM | 3.6 µM | 150 µL/min/mg | – | – | – | – | – | – |
| COCC(=O)N[C@@H](Cc1cc(F)cc(F)c1)[C@H](O)CN[C@H]1CC(C)(C)Oc2c1cc(CC(C)C)c1c2OCO1 [compound 748] | – | 100 nM | – | – | – | – | 190 µL/min/mg | 179 µL/min/mg | 0.126 µM | 0.013 µM | 8.2 µM | – |
| COCC(=O)N[C@@H](Cc1cc(F)cc(F)c1)[C@H](O)CN[C@H]1CC2(CCC2)Oc2c1cc(CC(C)(C)C)nc2-c1ccc2c(c1)OCO2 [compound 629] | – | 1200 nM | – | – | – | – | 171 µL/min/mg | 209 µL/min/mg | – | – | – | IC50 [1, 8]: 0.121 µM; IC50 [3, 9]: 0.009 µM; IC50 (CYP2D6; 2D6 IC50, CYP2D6 inhibition): ≥ 27 µM |
| COCC(=O)N[C@@H](Cc1cc(F)cc(F)c1)[C@H](O)CN[C@H]1CC2(CCC2)Oc2c(-c3cncs3)cc(CC(C)(C)C)cc21 [compound 486] | – | 200 nM | 408 µL/min/mg | – | – | 380 µL/min/mg | – | – | – | – | – | IC50 ([1]; HEK293, Table 2, HEK cells, read-out: HEK cell assay): 0.033 µM; IC50 ([3]; Table 2, read-out: BACE1 FRET assay): 0.004 µM; IC50 (CYP2D6; [14]): 12.8 µM |
| CO[C@H](C)C(=O)N[C@@H](Cc1cccc(-c2nccs2)c1)[C@H](O)CN[C@H]1CC2(CCC2)Oc2ncc(CC(C)C)cc21 [Example 776, (2R)-N-((1S,2R)-2-hydroxy-3-(((4′S)-6′-(2-methylpropyl)-3′,4′-dihydrospiro[cyclobutane-1,2′-pyrano[2,3-b]pyridin]-4′-yl)amino)-1-(3-(1,3-thiazol-2-yl)benzyl)propyl)-2-methoxypropanamide] | 0.027 µM | 200 nM | 58 µL/min/mg | 0.014 µM | 0.7 µM | 61 µL/min/mg | – | – | – | – | – | – |
| CO[C@H](C)C(=O)N[C@@H](Cc1cc(F)cc(-c2nccs2)c1)[C@H](O)CN[C@H]1CC2(CCC2)Oc2ncc(CC(C)(C)C)cc21 [compound 738, (2R)-N-((1S,2R)-3-(((4′S)-6′-(2,2-dimethylpropyl)-3′,4′-dihydrospiro[cyclobutane-1,2′-pyrano[2,3-b]pyridin]-4′-yl)amino)-1-(3-fluoro-5-(1,3-thiazol-2-yl)benzyl)-2-hydroxypropyl)-2-methoxypropanamide] | – | ≤ 30 nM | – | – | – | – | 50 µL/min/mg | 59 µL/min/mg | 0.01 µM | 0.008 µM | 0.6 µM | – |
| COCC(=O)N[C@@H](Cc1ccc2c(c1)OCO2)[C@H](O)CN[C@H]1CC2(CCC2)Oc2cnc(CC(C)C)cc21 [compound 664] | – | ≤ 30 nM | – | – | – | – | 193 µL/min/mg | 276 µL/min/mg | – | – | – | IC50 [1, 8]: 0.192 µM; IC50 [3, 9]: 0.118 µM; IC50 (CYP2D6; 2D6 IC50, CYP2D6 inhibition): 2.3 µM |
| COCC(=O)N[C@@H](Cc1cccc([C@@H]2CCCO2)c1)[C@H](O)CN[C@H]1CC2(CCC2)Oc2ncc(CC(C)(C)C)cc21 [compound 915] | – | 600 nM | 921 µL/min/mg | 1.96 µM | – | 590 µL/min/mg | – | – | – | – | – | IC50 [1, 13]: 0.562 µM; IC50 (CYP2D6; [14]): 6.8 µM |
| C#Cc1cnc2c(c1)[C@@H](NC[C@@H](O)[C@H](Cc1cc(F)cc(-c3nccs3)c1)NC(=O)COC)CC1(CCC1)O2 [compound 766] | 0.272 µM | 200 nM | 70 µL/min/mg | 0.055 µM | 1.4 µM | 64 µL/min/mg | – | – | – | – | – | – |
| CC(=O)N[C@@H](Cc1ccc2c(c1)OCO2)[C@H](O)CN[C@H]1CC(C)(C)Oc2ncc(CC(C)(C)C)cc21 [compound 679] | – | 200 nM | – | – | – | – | 24 µL/min/mg | 138 µL/min/mg | 0.012 µM | 0.019 µM | 5.7 µM | – |
